Patent US20110065674A1, “METHODS AND COMPOSITIONS FOR IMPROVING COGNITIVE FUNCTION” (priority 2008, published 2011)
Entries after “also recorded” stand apart in the source; their conditions may differ.

Experiments:
[1] = system: muscarinic receptor; assay: Muscarinic receptor-stimulated GTP-Eu binding assay on hippocampal membranes of treated rats; format: biochemical, rat; settings: chronic low dose valproate, memory impaired aged rats, vs vehicle treated; FIG. 1
Protocol: Membrane preparation: Rats were decapitated and the hippocampus was dissected on ice then frozen at −80° C. All the tissue was stored in −80° C. and processed for GTP-Eu binding. For the GTP-Eu binding assay, membranes were prepared from frozen tissue by gentle homogenization with a Dounce homogenizer in five volumes of ice-cold 50 mM Tris buffer, pH 7.4, containing 0.2 mM EGTA and protease inhibitors. After centrifuging at 40,000×g at 4° C. for 10 min, the pellets were resuspended in 30 ml of ice-cold Tris buffer. The steps described above were repeated twice, and then the final pellets were resuspended in assay buffer (50 mM Tris, 0.2 mM EGTA, 5 mM MgCl2, and 100 mM NaCl, pH 7.4) (Zhang et al 2007).
Muscarinic receptor-stimulated GTP-Eu binding assay. GTP-Eu binding was assessed using time-resolved fluorescence (Wallac 1420, Perkin-Elmer). The membranes and all the reagents were diluted with assay buffer. Samples were added into a 96-well filter plate in a counter-balanced manner based upon age and behavioral performance, although the experimenter was blind to the identification of the groups at the time of the assay. […] The integration of GTP-Eu into the membrane was measured by excitation of the samples at 340 nm and reading the emission at 615 nm using time-resolved fluorescence (Zhang et al 2007, Nicolle et al 1999). […]

[2] = system: memory impaired aged rats; assay: 6 hour-delay water maze spatial memory task in aged-impaired rats; format: in vivo, rat; settings: AI rats, FIG. 2
Protocol: (§1) AI Rats were treated with sodium valproate (“VPA”) chronically and subcutaneously at a rate of 100 mg/kg/day via implanted osmotic minipump, and then trained and tested in a new water maze environment. The water maze used here was housed in a different building and was surrounded by black curtains with a novel set of white patterns. The training protocol used was based on a modified water maze task known to be highly hippocampal-dependent (de Hoz et al., 2005; Steele & Morris, 1999). Unlike the traditional water maze protocol (such as that used in the background assessment, described above) wherein the escape platform location remained constant throughout training, the escape platform location in this spatial memory version of the task varied from day to day.
The test was comprised of a training phase followed by a memory retention test. Each day, during the training phase, rats were given six trials to locate the submerged escape platform. On each trial, a rat was released in the maze from one of four equally spaced starting positions around the perimeter of the pool. The starting position varied from trial to trial. […] The rat was then removed from the platform and placed in a holding cage for another 40 s before the next trial. The length of the path the rat took while swimming in the maze was measured in each trial. […]

[3] = Blood total VPA level under chronic subcutaneous administration; format: in vivo, rat; settings: chronic subcutaneous administration of 100 mg/kg/day
Protocol: as §1
After the 6-hr waiting period, the rats were returned to the water maze for a test of spatial memory with the submerged platform located in the same position as in the training trials. Each rat was given 60 s to locate the platform. Rats were trained and tested in this manner for five consecutive days. Performances on the last three days were averaged for analysis. […] The chronic subcutaneous administration of 100 mg/kg/day VPA results in a blood total VPA level of 10 μg/ml plasma (10 μg/ml total VPA).

[4] = system: Age-Impaired (AI) Long-Evans rats; assay: 24 hour-delay Morris Water Maze memory retention trial in aged-impaired rats; format: in vivo, rat; settings: for spatial memory retention (time in target quadrant) in 24-hr retention trial: donepezil alone 0.5, 1.0 and 2.0 mg/kg i.p. before training
Protocol: Age-Impaired (AI) Long-Evans rats (as characterized above) were tested for their memory of new spatial information in the MWM, under different drug/control treatment conditions: vehicle control, donezepil only, VPA only, and combination of VPA and donezepil. Donezepil was administered at a range of doses (0.5, 1.0 or 2.0 mg/kg) 30 minutes to 1 hour prior to training trials. VPA was administered chronically and subcutaneously at a rate of 100 mg/kg/day via implanted osmotic minipump.
AI rats were given six training trials per training day with a 60-sec inter-trial interval between each training trial for two consecutive days. On each training trial, the rat was released in the maze from one of four equally spaced starting positions around the perimeter of the pool. […] 30 minutes to 1 hour prior to all the training trials on each training day, AI rats were pretreated with one of four drug conditions: 1) vehicle control (0.9% saline solution); 2) 0.5 mg/kg donpepzil; and 3) 1.0 mg/kg donpepzil; and 4) 2.0 mg/kg donpepzil through intraperitoneal (i.p.) injection.
The same AI rats were used for the entire set of experiments so that each treatment condition was tested on each of the rats. Therefore, to counterbalance any potential bias, both the location of the escape platform and the spatial cues surrounding the water maze were different in the four treatment conditions. In other words, using one set of locations and spatial cues, two rats were treated with saline control solution, two with 0.5 mg/kg donpepzil, two with 1.0 mg/kg donpepzil and two with 2.0 mg/kg donpepzil. These groups were cycled through 3 more sets of locations and spatial cues, with each group of two receiving a different treatment each time, so that at the end, each treatment condition was tested in eight rats.
After the completion of the twelve training trials (over the two days), the rats were returned to their home cages in the colony room for a 24-hr waiting period, in preparation for the subsequent memory retention test. After the waiting period, the rat was given one testing trial (the “retention trial”), which was the same MWM task as the training trials, but with the escape platform removed.
For the retention trial, the MWM circular pool was divided into 4 quadrants. The particular quadrant where the escape platform was placed in the training trials is referred to as the “target quadrant”. The particular region where the platform was located in the training trials is referred to as the “target annulus”. In the retention trial, the time the AI rats spent swimming in the target quadrant was measured and further plotted as a percentage of total swimming time. The time the AI rats spend in the target annulus was also measured. […]

| Structure (SMILES) | muscarinic receptor-stimulated GTP-Eu binding in the hippocampus (percentage of young rat) [1] | memory retention (forgetting, path length) after a 6-hr delay ([2]; VPA 100 mg/kg/day chronic s.c. minipump, vs saline or VPA 50 mg/kg/day) | performance (path length) at the end of the training phase ([2]; chronic s.c. minipump, Trials 1-6, compared with saline) | blood total VPA level [3] [μg/ml plasma] | spatial memory retention in 24-hr retention trial ([4]; VPA only, 100 mg/kg/day chronic s.c. minipump, FIG. 3, 100 mg/kg/day) | spatial memory retention (time in target quadrant) in 24-hr retention trial ([4]; FIG. 3) | spatial memory retention (time in target quadrant) in 24-hr retention trial ([4]; FIG. 3, listed as Donezepil) |
| --- | --- | --- | --- | --- | --- | --- | --- |
| CCCC(CCC)C(=O)[O-].[Na+] [VPA, sodium valproate] | effectively restore post-synaptic muscarinic coupling; also recorded: increases muscarinic receptor-GTP-Eu binding | showed less forgetting; also recorded: improved the performance | performed at a comparable level | 10 | no improvement seen | – | – |
| COc1cc2c(cc1OC)C(=O)C(CC1CCN(Cc3ccccc3)CC1)C2 (stereo not shown) [donezepil, donepezil] | – | – | – | – | – | did not significantly improve | no effect |
